The subject of this experiment is MV-4-11 cells. The experiment in a line: Gene expression microarray analysis (Affymetrix PrimeView) and GSEA. The class given is cell-based, human. Also noted: RFU PODN (11730768_x_at) / Fold change /veh PODN (11730768_x_at) / RFU LINC00158 (11744669_a_at) / Fold change /veh LINC00158 (11744669_a_at) / RFU DUSP10 (11751237_a_at) / Fold change /veh DUSP10 (11751237_a_at) / RFU ID3 (11757404_x_at) / Fold change /veh ID3 (11757404_x_at) / RFU PLEKHG5 (11737974_s_at) / Fold change /veh PLEKHG5 (11737974_s_at) / RFU LRRC4B (11730491_at) / Fold change /veh LRRC4B (11730491_at) / RFU GIMAP4 (11747438_a_at) / Fold change /veh GIMAP4 (11747438_a_at) / RFU KRT8 (11758183_x_at) / Fold change /veh KRT8 (11758183_x_at) / RFU CNN1 (11734310_a_at) / Fold change /veh CNN1 (11734310_a_at) / RFU VPS37D (11726825_at) / Fold change /veh VPS37D (11726825_at) / RFU C10orf10 (11716522_x_at) / Fold change /veh C10orf10 (11716522_x_at) / RFU KIR2DL2 /// KIR2DL4 /// KIR2DL5A /// KIR2DL5B /// KIR2DS1 /// KIR2DS2 /// KIR2DS3 /// KIR2DS4 /// KIR3DL3 /// KIR3DL3 /// KIR3DS1 (11738374_at) / Fold change /veh KIR2DL2 /// KIR2DL4 /// KIR2DL5A /// KIR2DL5B /// KIR2DS1 /// KIR2DS2 /// KIR2DS3 /// KIR2DS4 /// KIR3DL3 /// KIR3DL3 /// KIR3DS1 (11738374_at) / RFU C1QL1 (11718748_at) / Fold change /veh C1QL1 (11718748_at) / RFU TMPRSS4 (11747572_a_at) / Fold change /veh TMPRSS4 (11747572_a_at) / RFU HAMP (11756126_x_at) / Fold change /veh HAMP (11756126_x_at) / RFU RNFT2 (11725882_a_at) / Fold change /veh RNFT2 (11725882_a_at) / RFU NR4A2 (11747474_a_at) / Fold change /veh NR4A2 (11747474_a_at) / RFU ABCC12 (11746883_a_at) / Fold change /veh ABCC12 (11746883_a_at) / RFU TMEM136 (11760407_x_at) / Fold change /veh TMEM136 (11760407_x_at) / RFU CLDN22 /// WWC2 (11732394_at) / Fold change /veh CLDN22 /// WWC2 (11732394_at) / RFU HLA-DPB1 (11760878_x_at) / Fold change /veh HLA-DPB1 (11760878_x_at) / RFU SPINT1 (11716480_a_at) / Fold change /veh SPINT1 (11716480_a_at) / RFU GAP43 (11754022_s_at) / Fold change /veh GAP43 (11754022_s_at) / RFU A4GNT (11735810_at) / Fold change /veh A4GNT (11735810_at) / RFU PRB3 (11715151_x_at) / Fold change /veh PRB3 (11715151_x_at) / RFU TUBB4B (11761932_at) / Fold change /veh TUBB4B (11761932_at) / RFU CAPN14 (11732068_a_at) / Fold change /veh CAPN14 (11732068_a_at) / RFU TMCC2 (11721928_a_at) / Fold change /veh TMCC2 (11721928_a_at) / RFU IRGQ (11745062_a_at) / Fold change /veh IRGQ (11745062_a_at) / RFU FAM174B (11720279_a_at) / Fold change /veh FAM174B (11720279_a_at) / RFU TMPRSS4 (11748680_a_at) / Fold change /veh TMPRSS4 (11748680_a_at) / RFU FAM212B (11763350_a_at) / Fold change /veh FAM212B (11763350_a_at) / RFU PLEKHG5 (11743358_a_at) / Fold change /veh PLEKHG5 (11743358_a_at) / RFU ZSCAN30 (11745921_a_at) / Fold change /veh ZSCAN30 (11745921_a_at) / RFU CMKLR1 (11741424_a_at) / Fold change /veh CMKLR1 (11741424_a_at) / RFU LOC101060620 /// MAPK8IP1 (11723275_at) / Fold change /veh LOC101060620 /// MAPK8IP1 (11723275_at) / RFU SPTSSB (11747773_x_at) / Fold change /veh SPTSSB (11747773_x_at) / RFU PRSS12 (11739890_at) / Fold change /veh PRSS12 (11739890_at) / RFU BIN1 (11741810_x_at) / Fold change /veh BIN1 (11741810_x_at) / RFU WNT11 (11732464_a_at) / Fold change /veh WNT11 (11732464_a_at) / RFU C10orf10 (11716521_a_at) / Fold change /veh C10orf10 (11716521_a_at) / RFU C5orf56 (11738089_at) / Fold change /veh C5orf56 (11738089_at) / RFU CYB561 (11721691_x_at) / Fold change /veh CYB561 (11721691_x_at) / RFU ANKRD19P (11752326_a_at) / Fold change /veh ANKRD19P (11752326_a_at) / RFU OR2T12 /// OR2T33 /// OR2T8 (11738714_s_at) / Fold change /veh OR2T12 /// OR2T33 /// OR2T8 (11738714_s_at) / RFU VCAN (11748164_a_at) / Fold change /veh VCAN (11748164_a_at) / RFU JSRP1 (11732532_at) / Fold change /veh JSRP1 (11732532_at) / RFU KRTAP10-11 (11738290_x_at) / Fold change /veh KRTAP10-11 (11738290_x_at) / RFU MYO3A (11730013_a_at) / Fold change /veh MYO3A (11730013_a_at) / RFU EBF3 (11725865_a_at) / Fold change /veh EBF3 (11725865_a_at) / RFU CAMK2N1 (11719241_x_at) / Fold change /veh CAMK2N1 (11719241_x_at) / RFU C5orf56 (11738088_a_at) / Fold change /veh C5orf56 (11738088_a_at) / RFU OLFML3 (11715873_a_at) / Fold change /veh OLFML3 (11715873_a_at) / RFU LOC100653217 /// NTM (11731650_a_at) / Fold change /veh LOC100653217 /// NTM (11731650_a_at) / RFU MAPK11 (11762145_a_at) / Fold change /veh MAPK11 (11762145_a_at) / RFU FIZ1 (11724087_x_at) / Fold change /veh FIZ1 (11724087_x_at) / RFU OASL (11726364_x_at) / Fold change /veh OASL (11726364_x_at) / RFU SOX15 (11748057_x_at) / Fold change /veh SOX15 (11748057_x_at) / RFU CD79A (11719716_a_at) / Fold change /veh CD79A (11719716_a_at) / RFU HIST1H1D (11736915_at) / Fold change /veh HIST1H1D (11736915_at) / RFU CASKIN2 (11723855_a_at) / Fold change /veh CASKIN2 (11723855_a_at) / RFU LOC730098 (11760151_x_at) / Fold change /veh LOC730098 (11760151_x_at) / RFU OR4N2 (11742367_at) / Fold change /veh OR4N2 (11742367_at) / RFU PRRT2 (11749266_a_at) / Fold change /veh PRRT2 (11749266_a_at) / RFU SNX32 (11753110_a_at) / Fold change /veh SNX32 (11753110_a_at) / RFU CDHR5 (11726645_a_at) / Fold change /veh CDHR5 (11726645_a_at) / RFU RCAN1 (11760418_a_at) / Fold change /veh RCAN1 (11760418_a_at) / RFU FAM167A (11723789_a_at) / Fold change /veh FAM167A (11723789_a_at) / RFU FAM26E (11764081_at) / Fold change /veh FAM26E (11764081_at) / RFU ISYNA1 (11749810_s_at) / Fold change /veh ISYNA1 (11749810_s_at) / RFU ACY1 (11761880_at) / Fold change /veh ACY1 (11761880_at) / RFU 11764098_at / Fold change /veh 11764098_at / RFU SAMD14 (11745864_x_at) / Fold change /veh SAMD14 (11745864_x_at) / RFU NPB (11741838_a_at) / Fold change /veh NPB (11741838_a_at) / RFU TMPRSS6 (11731388_a_at) / Fold change /veh TMPRSS6 (11731388_a_at) / RFU KRTAP10-2 (11738614_at) / Fold change /veh KRTAP10-2 (11738614_at) / RFU ARHGAP8 /// PRR5-ARHGAP8 (11727945_x_at) / Fold change /veh ARHGAP8 /// PRR5-ARHGAP8 (11727945_x_at) / RFU KRTAP5-7 /// NADSYN1 (11734609_at) / Fold change /veh KRTAP5-7 /// NADSYN1 (11734609_at) / RFU RASL12 (11751679_a_at) / Fold change /veh RASL12 (11751679_a_at) / RFU CDKN2B (11736163_a_at) / Fold change /veh CDKN2B (11736163_a_at) / RFU PRF1 (11729649_at) / Fold change /veh PRF1 (11729649_at) / RFU, ZNF638 /// ZNF638-IT1 / Fold change vs veh, ZNF638 /// ZNF638-IT1 / RFU, PANK3 / Fold change vs veh, PANK3 / RFU, SH3YL1 / Fold change vs veh, SH3YL1 / RFU, ZEB2 / Fold change vs veh, ZEB2 / RFU, NRIP1 / Fold change vs veh, NRIP1 / RFU, PTTG1IP / Fold change vs veh, PTTG1IP / RFU, CAPN2 / Fold change vs veh, CAPN2 / RFU, MED14 / Fold change vs veh, MED14 / RFU, SNORA58 / Fold change vs veh, SNORA58 / RFU, C1orf63 / Fold change vs veh, C1orf63 / RFU, LRRFIP1 / Fold change vs veh, LRRFIP1 / RFU, NDUFAF7 / Fold change vs veh, NDUFAF7 / RFU, SLC12A2 / Fold change vs veh, SLC12A2 / RFU, IBTK / Fold change vs veh, IBTK / RFU, ESF1 / Fold change vs veh, ESF1 / Fold change vs veh, TMEM50B / RFU, TAOK1 / Fold change vs veh, TAOK1 / RFU, ACBD3 / Fold change vs veh, ACBD3 / RFU, TMA16 / Fold change vs veh, TMA16 / RFU, RWDD3 / Fold change vs veh, RWDD3 / RFU, BCAT1 / Fold change vs veh, BCAT1 / RFU, EDEM3 / Fold change vs veh, EDEM3 / RFU, TMEM33 / Fold change vs veh, TMEM33 / RFU, WDR75 / Fold change vs veh, WDR75 / RFU, AHCTF1 / Fold change vs veh, AHCTF1 / RFU, TFRC / Fold change vs veh, TFRC / RFU, ZDHHC17 / Fold change vs veh, ZDHHC17 / RFU, NOM1 / Fold change vs veh, NOM1 / RFU, ARL8B / Fold change vs veh, ARL8B / RFU, ZBTB11 / Fold change vs veh, ZBTB11 / RFU, TAMM41 / Fold change vs veh, TAMM41 / RFU, KIAA1704 /// LOC100996395 / Fold change vs veh, KIAA1704 /// LOC100996395 / RFU, ING1 / Fold change vs veh, ING1 / RFU, TRMT61B / Fold change vs veh, TRMT61B / RFU, FUBP3 / Fold change vs veh, FUBP3 / RFU, TP53 / Fold change vs veh, TP53 / RFU, TNKS2 / Fold change vs veh, TNKS2 / RFU, ZFP14 / Fold change vs veh, ZFP14 / RFU, ACTR2 / Fold change vs veh, ACTR2 / RFU, PPP3R1 / Fold change vs veh, PPP3R1 / RFU, PIK3R1 / Fold change vs veh, PIK3R1 / RFU, HNRNPA1 / Fold change vs veh, HNRNPA1 / RFU, RNF170 / Fold change vs veh, RNF170 / RFU, ZNF28 / Fold change vs veh, ZNF28 / RFU, RNGTT / Fold change vs veh, RNGTT / RFU, OGT / Fold change vs veh, OGT / RFU, BRD1 / Fold change vs veh, BRD1 / RFU, MARS / Fold change vs veh, MARS / RFU, ZNF655 / Fold change vs veh, ZNF655 / RFU, FAHD1 / Fold change vs veh, FAHD1 / RFU, BDP1 / Fold change vs veh, BDP1 / RFU, LRRCC1 / Fold change vs veh, LRRCC1 / RFU, ARID1A / Fold change vs veh, ARID1A / RFU, ZNF146 / Fold change vs veh, ZNF146 / RFU, ZNF330 / Fold change vs veh, ZNF330 / RFU, GPN3 / Fold change vs veh, GPN3 / RFU, C9orf123 / Fold change vs veh, C9orf123 / RFU, N4BP2L2 / Fold change vs veh, N4BP2L2 / RFU, ARFIP1 / Fold change vs veh, ARFIP1 / RFU, FAM179B / Fold change vs veh, FAM179B / RFU, BCL10 / Fold change vs veh, BCL10 / RFU, UHRF1BP1L / Fold change vs veh, UHRF1BP1L / RFU, BET1 / Fold change vs veh, BET1 / RFU, CNOT2 / Fold change vs veh, CNOT2 / RFU, ZNF268 / Fold change vs veh, ZNF268 / Fold change vs veh, ZNF507 / RFU, DGCR2 / Fold change vs veh, DGCR2 / RFU, WDSUB1 / Fold change vs veh, WDSUB1 / Fold change vs veh, HSP90B1 /// MIR3652 / RFU, ADSS / Fold change vs veh, ADSS / RFU, GK / Fold change vs veh, GK / RFU, ZNF148 / Fold change vs veh, ZNF148 / RFU, TAF9 / Fold change vs veh, TAF9 / RFU, SLC1A5 / Fold change vs veh, SLC1A5 / RFU, SLMO2 / Fold change vs veh, SLMO2 / RFU, ABCC4 / Fold change vs veh, ABCC4 / RFU, LOC101060439 /// RAP1B / Fold change vs veh, LOC101060439 /// RAP1B / RFU, RFX7 / Fold change vs veh, RFX7 / RFU, GTPBP10 / Fold change vs veh, GTPBP10 / RFU, CNEP1R1 / Fold change vs veh, CNEP1R1 / RFU, BIVM-ERCC5 /// ERCC5 / Fold change vs veh, BIVM-ERCC5 /// ERCC5 / RFU, ILF3 / Fold change vs veh, ILF3 / RFU 11762660_at / Fold change /veh 11762660_at / RFU VCAN (11757783_s_at) / Fold change /veh VCAN (11757783_s_at) / RFU DDX43 (11728927_at) / Fold change /veh DDX43 (11728927_at) / RFU KRT8 (11758188_x_at) / Fold change /veh KRT8 (11758188_x_at) / RFU NKD1 (11759106_at) / Fold change /veh NKD1 (11759106_at) / RFU SRD5A1 (11742802_a_at) / Fold change /veh SRD5A1 (11742802_a_at) / RFU TPSAB1 /// TPSB2 (11721975_s_at) / Fold change /veh TPSAB1 /// TPSB2 (11721975_s_at) / RFU GSTM3 (11746129_a_at) / Fold change /veh GSTM3 (11746129_a_at) / RFU IL23R (11737362_x_at) / Fold change /veh IL23R (11737362_x_at) / RFU TMEM51 (11727254_a_at) / Fold change /veh TMEM51 (11727254_a_at) / RFU PIWIL2 (11732686_x_at) / Fold change /veh PIWIL2 (11732686_x_at) / RFU ORM1 (11744905_x_at) / Fold change /veh ORM1 (11744905_x_at) / RFU CCDC152 (11743942_at) / Fold change /veh CCDC152 (11743942_at) / RFU ECM1 (11717891_a_at) / Fold change /veh ECM1 (11717891_a_at) / RFU IL23R (11748794_a_at) / Fold change /veh IL23R (11748794_a_at) / RFU TNFAIP8L3 (11732012_x_at) / Fold change /veh TNFAIP8L3 (11732012_x_at) / RFU MBOAT4 (11741988_at) / Fold change /veh MBOAT4 (11741988_at) / RFU 11764193_at / Fold change /veh 11764193_at / RFU TMEM53 (11763286_at) / Fold change /veh TMEM53 (11763286_at) / RFU MAGEB2 (11727129_at) / Fold change /veh MAGEB2 (11727129_at) / RFU TMEM200A (11744735_a_at) / Fold change /veh TMEM200A (11744735_a_at) / RFU CCDC152 (11751479_a_at) / Fold change /veh CCDC152 (11751479_a_at) / RFU FAM211A (11726209_a_at) / Fold change /veh FAM211A (11726209_a_at) / RFU RGS16 (11746705_a_at) / Fold change /veh RGS16 (11746705_a_at) / RFU VCAN (11755009_s_at) / Fold change /veh VCAN (11755009_s_at) / RFU RHOB (11743442_s_at) / Fold change /veh RHOB (11743442_s_at) / RFU RGS16 (11720943_a_at) / Fold change /veh RGS16 (11720943_a_at) / RFU RGS16 (11720944_at) / Fold change /veh RGS16 (11720944_at) / RFU, VPS4B / Fold change vs veh, VPS4B / RFU, CREB1 / Fold change vs veh, CREB1 / RFU, DNAJC13 / Fold change vs veh, DNAJC13 / RFU, GNAQ / Fold change vs veh, GNAQ / RFU, CDK5R1 / Fold change vs veh, CDK5R1 / RFU, ZRANB3 / Fold change vs veh, ZRANB3 / RFU, CUL4A / Fold change vs veh, CUL4A / RFU, CCNY / Fold change vs veh, CCNY / RFU, UFL1 / Fold change vs veh, UFL1 / RFU, COG3 / Fold change vs veh, COG3 / RFU, DIAPH2 / Fold change vs veh, DIAPH2 / RFU, SKA2 / Fold change vs veh, SKA2 / RFU, AFF3 / Fold change vs veh, AFF3 / RFU, LMF1 / Fold change vs veh, LMF1 / RFU, IPO11 / Fold change vs veh, IPO11 / RFU, DFFB / Fold change vs veh, DFFB / RFU, FOXP1 / Fold change vs veh, FOXP1 / RFU, CARD8 / Fold change vs veh, CARD8 / RFU, STRN3 / Fold change vs veh, STRN3 / RFU, ADK / Fold change vs veh, ADK / RFU, RASSF2 / Fold change vs veh, RASSF2 / RFU, WIPF1 / Fold change vs veh, WIPF1 / RFU, LARP1B / Fold change vs veh, LARP1B / RFU, RASA1 / Fold change vs veh, RASA1 / RFU, RB1 / Fold change vs veh, RB1 / RFU, PPFIA1 / Fold change vs veh, PPFIA1 / RFU, MAT2A / Fold change vs veh, MAT2A / RFU, CCT5 / Fold change vs veh, CCT5 / RFU, WDR92 / Fold change vs veh, WDR92 / RFU, CUX1 / Fold change vs veh, CUX1 / RFU, TTC7A / Fold change vs veh, TTC7A / RFU, TMEM135 / Fold change vs veh, TMEM135 / RFU, DEPTOR / Fold change vs veh, DEPTOR / RFU, CPM / Fold change vs veh, CPM / RFU, DNAJB6 / Fold change vs veh, DNAJB6 / RFU, CACNA2D3 / Fold change vs veh, CACNA2D3 / RFU, DTX4 / Fold change vs veh, DTX4 / RFU, TFCP2 / Fold change vs veh, TFCP2 / RFU, GMCL1 /// GMCL1P1 / Fold change vs veh, GMCL1 /// GMCL1P1 / RFU, AEBP2 / Fold change vs veh, AEBP2 / RFU, SNHG1 /// SNORD22 /// SNORD25 /// SNORD26 /// SNORD27 /// SNORD28 /// SNORD29 /// SNORD31 / Fold change vs veh, SNHG1 /// SNORD22 /// SNORD25 /// SNORD26 /// SNORD27 /// SNORD28 /// SNORD29 /// SNORD31 / Fold change (Aza/veh), C12orf56 (ProbeSet 11735607_a_at) / Fold change (ACY-1035/veh), C12orf56 (ProbeSet 11735607_a_at) / Fold change (Aza/veh), FGFR1OP (ProbeSet 11751329_s_at) / Fold change (ACY-1035/veh), FGFR1OP (ProbeSet 11751329_s_at) / Fold change (Aza/veh), VPS36 (ProbeSet 11739960_a_at) / Fold change (ACY-1035/veh), VPS36 (ProbeSet 11739960_a_at) / RFU SYPL1 (11715823_x_at) / Fold change /veh SYPL1 (11715823_x_at) / RFU IGFBP7 (11715501_s_at) / Fold change /veh IGFBP7 (11715501_s_at) / RFU REEP3 (11722064_at) / Fold change /veh REEP3 (11722064_at) / RFU IGLL1 (11728026_x_at) / Fold change /veh IGLL1 (11728026_x_at): dose or concentration left out as unconfirmed. The conditions noted are these: MV-4-11 cells, 48 hours.

As for `Nc1ccc(-c2cccs2)cc1NC(=O)c1ccc2c(c1)cc(C1CC1)n2CCN1CCOCC1` [ACY-1035], the “RFU ECM1 (11717891_a_at)” value was found to be 18.49 RFU.

The record behind these values is PMC5218480 (PLoS ONE, 2017).
